Results published in PubChem BioAssay AID2060626 (Molecular Pharmacology Branch, DTP, NCI, 2025).

Tested on: 168753-222-R-J1-PDC complex spheroid viability
Assay: Anticancer human tumor 168753-222-R-J1-PDC patient-derived bladder carcinoma cell line growth inhibition [CLK]
Details: for IC50: curve of first compound; for viability, T/C: stronger effect = lower value
Summary of the method: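 Patient-derived tumor cells grown as complex spheroids with HUVEC endothelial cells and mesenchymal stem cells, treated with drug combinations. Concentrations descend in half-log steps from near clinical Cmax, or from 10 microM if Cmax unknown.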

[1] = second compound 0.0316 µM, first compound 0.0316 µM
[2] = second compound 0.0316 µM, first compound 0.1 µM
[3] = second compound 0.0316 µM, first compound 0.316 µM
[4] = second compound 0.0316 µM, first compound 1 µM
[5] = second compound 0.0316 µM, first compound 3.16 µM
[6] = second compound 0.0316 µM, first compound 10 µM
[7] = second compound 0.1 µM, first compound 0.0316 µM
[8] = second compound 0.1 µM, first compound 0.1 µM
[9] = second compound 0.1 µM, first compound 0.316 µM
[10] = second compound 0.1 µM, first compound 1 µM
[11] = second compound 0.1 µM, first compound 3.16 µM
[12] = second compound 0.1 µM, first compound 10 µM
[13] = second compound 0.316 µM, first compound 0.0316 µM
[14] = second compound 0.316 µM, first compound 0.1 µM
[15] = second compound 0.316 µM, first compound 0.316 µM
[16] = second compound 0.316 µM, first compound 1 µM
[17] = second compound 0.316 µM, first compound 3.16 µM
[18] = second compound 0.316 µM, first compound 10 µM
[19] = second compound 1 µM, first compound 0.0316 µM
[20] = second compound 1 µM, first compound 0.1 µM
[21] = second compound 1 µM, first compound 0.316 µM
[22] = second compound 1 µM, first compound 1 µM
[23] = second compound 1 µM, first compound 3.16 µM
[24] = second compound 1 µM, first compound 10 µM
[25] = second compound 3.16 µM, first compound 0.0316 µM
[26] = second compound 3.16 µM, first compound 0.1 µM
[27] = second compound 3.16 µM, first compound 0.316 µM
[28] = second compound 3.16 µM, first compound 1 µM
[29] = second compound 3.16 µM, first compound 3.16 µM
[30] = second compound 3.16 µM, first compound 10 µM
[31] = second compound 10 µM, first compound 0.0316 µM
[32] = second compound 10 µM, first compound 0.1 µM
[33] = second compound 10 µM, first compound 0.316 µM
[34] = second compound 10 µM, first compound 1 µM
[35] = second compound 10 µM, first compound 3.16 µM
[36] = second compound 10 µM, first compound 10 µM
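Further: viability measured after seven days of drug exposure.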
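Wherever viability, T/C is given: luminescence signal used as surrogate for viable cell amount; 100% = DMSO vehicle control wells.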

C#Cc1c(F)ccc2cc(O)cc(-c3ncc4c(N5CC6CCC(C5)N6)nc(OCC56CCCN5CC(F)C6)nc4c3F)c12 (centres undefined) + CNC(=O)c1ccc(Nc2nc(OC3CCCC3)c3c(-c4ccc5nc(C)oc5c4)c[nH]c3n2)c(OC)c1
IC50 (second compound 0.0316 µM): > 10 µM | IC50 (second compound 0.1 µM): > 10 µM | IC50 (second compound 0.316 µM): 5.14 µM | IC50 (second compound 1 µM): < 0.0316 µM | IC50 (second compound 3.16 µM): < 0.0316 µM | IC50 (second compound 10 µM): < 0.0316 µM | viability, T/C [1]: 106% | viability, T/C [2]: 99.4% | viability, T/C [3]: 107% | viability, T/C [4]: 99.2% | viability, T/C [5]: 105% | viability, T/C [6]: 73.1% | viability, T/C [7]: 99.1% | viability, T/C [8]: 103% | viability, T/C [9]: 101% | viability, T/C [10]: 101% | viability, T/C [11]: 90.1% | viability, T/C [12]: 73% | viability, T/C [13]: 86% | viability, T/C [14]: 74.3% | viability, T/C [15]: 78.5% | viability, T/C [16]: 78.2% | viability, T/C [17]: 67.9% | viability, T/C [18]: 25.6% | viability, T/C [19]: 42.3% | viability, T/C [20]: 39.9% | viability, T/C [21]: 36.7% | viability, T/C [22]: 22.7% | viability, T/C [23]: 30.4% | viability, T/C [24]: 16.9% | viability, T/C [25]: 28.7% | viability, T/C [26]: 21.7% | viability, T/C [27]: 20% | viability, T/C [28]: 17.7% | viability, T/C [29]: 18.4% | viability, T/C [30]: 16.2% | viability, T/C [31]: 17.1% | viability, T/C [32]: 21.5% | viability, T/C [33]: 18.6% | viability, T/C [34]: 14.8% | viability, T/C [35]: 11.7% | viability, T/C [36]: 11.3%

CC(CO)NC(=O)c1cc(-c2ccc(Cl)cc2)nn(-c2cnn(C)c2)c1=O (centres undefined) + CNC(=O)c1ccc(Nc2nc(OC3CCCC3)c3c(-c4ccc5nc(C)oc5c4)c[nH]c3n2)c(OC)c1
IC50 (second compound 0.0316 µM): > 10 µM | IC50 (second compound 0.1 µM): > 10 µM | IC50 (second compound 0.316 µM): > 10 µM | IC50 (second compound 1 µM): < 0.0316 µM | IC50 (second compound 3.16 µM): < 0.0316 µM | IC50 (second compound 10 µM): < 0.0316 µM | viability, T/C [1]: 117% | viability, T/C [2]: 99.4% | viability, T/C [3]: 94.4% | viability, T/C [4]: 97.2% | viability, T/C [5]: 97.2% | viability, T/C [6]: 88.2% | viability, T/C [7]: 102% | viability, T/C [8]: 99.6% | viability, T/C [9]: 85.7% | viability, T/C [10]: 96.7% | viability, T/C [11]: 95% | viability, T/C [12]: 85.1% | viability, T/C [13]: 79.1% | viability, T/C [14]: 76.8% | viability, T/C [15]: 74.6% | viability, T/C [16]: 77.2% | viability, T/C [17]: 80.5% | viability, T/C [18]: 66.8% | viability, T/C [19]: 48.9% | viability, T/C [20]: 51.3% | viability, T/C [21]: 44% | viability, T/C [22]: 32.6% | viability, T/C [23]: 55.4% | viability, T/C [24]: 53.1% | viability, T/C [25]: 24.6% | viability, T/C [26]: 37% | viability, T/C [27]: 39.2% | viability, T/C [28]: 28% | viability, T/C [29]: 39.4% | viability, T/C [30]: 35.2% | viability, T/C [31]: 18.5% | viability, T/C [32]: 26.8% | viability, T/C [33]: 27.3% | viability, T/C [34]: 22.2% | viability, T/C [35]: 30% | viability, T/C [36]: 27.7%
